Among the data in patent US20240246967A1, “AXL COMPOUNDS” (ARCUS BIOSCIENCES, INC., priority 2021, published 2024) are IC50 values, retold here.

What is called IC50 is the point on the concentration scale where inhibition reaches its midpoint.

In this assay the target is T1, human TYRO3 (Homo sapiens, UniProt Q06418).
T1 construct: purchased Invitrogen
T1 sequence (Q06418 41-890): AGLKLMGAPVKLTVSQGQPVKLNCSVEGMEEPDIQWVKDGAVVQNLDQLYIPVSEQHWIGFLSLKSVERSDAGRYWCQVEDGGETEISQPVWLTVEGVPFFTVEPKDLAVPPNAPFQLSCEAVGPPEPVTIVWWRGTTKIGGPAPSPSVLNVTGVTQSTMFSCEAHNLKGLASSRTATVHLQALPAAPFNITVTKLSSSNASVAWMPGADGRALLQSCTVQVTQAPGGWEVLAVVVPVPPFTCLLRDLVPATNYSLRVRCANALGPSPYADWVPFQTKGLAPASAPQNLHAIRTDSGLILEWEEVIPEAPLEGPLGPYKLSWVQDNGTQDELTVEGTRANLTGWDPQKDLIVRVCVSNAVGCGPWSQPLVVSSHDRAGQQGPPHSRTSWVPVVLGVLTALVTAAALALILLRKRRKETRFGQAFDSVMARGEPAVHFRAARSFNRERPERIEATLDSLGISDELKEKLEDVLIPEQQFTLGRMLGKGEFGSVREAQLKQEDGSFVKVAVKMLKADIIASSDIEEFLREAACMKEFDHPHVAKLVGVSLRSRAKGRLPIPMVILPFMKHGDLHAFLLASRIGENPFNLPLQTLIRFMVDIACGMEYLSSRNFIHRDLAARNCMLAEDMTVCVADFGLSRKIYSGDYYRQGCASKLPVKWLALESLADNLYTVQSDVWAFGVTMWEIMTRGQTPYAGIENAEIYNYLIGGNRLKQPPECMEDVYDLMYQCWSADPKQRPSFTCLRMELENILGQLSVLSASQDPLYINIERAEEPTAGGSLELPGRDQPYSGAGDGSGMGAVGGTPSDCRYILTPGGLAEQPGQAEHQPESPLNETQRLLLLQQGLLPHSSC
The assay is described as follows: HTRF KinEASE-TK biochemical potency assay, TYRO3. Conditions: 1 nM TYRO3, 700 μM ATP, 800 nM TK Substrate-biotin. On the procedure: Purified recombinant human AXL, TYRO3 and MER proteins were purchased from Invitrogen™. 10 nM AXL, 2 nM TYRO3 or MER were incubated with varying concentrations of compounds in 50 mM HEPES, pH 7.4, 10 mM MgCl2, 0.01% BSA, 1 mM DTT and 2% DMSO in a total volume of 20 μl in a 384-well microplate (Corning™ #3640) at RT for 1 h. The AXL, TYRO3 and MER enzymatic reaction was initiated by transferring 10 μl of enzyme and compound mixture into 10 μl of 1.6 μM TK Substrate-biotin (HTRF® KinEASE-TK kit, Cisbio) and 1400 μM ATP pre-incubated in 50 mM HEPES, pH 7.4, 10 mM MgCl2, 0.01% BSA, 1 mM DTT in a 384-well microplate (Corning™ #3640) at RT, giving the final reaction conditions: 5 nM AXL, 1 nM TYRO3 or MER, 800 nM TK Substrate-biotin and 700 μM ATP in 50 mM HEPES, pH 7.4, 10 mM MgCl2, 0.01% BSA, 1 mM DTT and 1% DMSO with varying concentrations of compounds. Following 2 h incubation at RT, the AXL, TYRO3 and MER enzymatic reaction was stopped by transfer of 10 μl of reaction into 10 μl of detection mix (400 nM Streptavidin-XL665, 200-fold dilution TK Antibody-Cryptate and detection buffer, HTRF® KinEASE-TK kit, Cisbio) in a white 384-well microplate (Perkin Elmer, OptiPlate 384). After 1 h incubation at RT, the plate was put into a plate reader (Evision) to read at 665/620 nm (acceptor/donor) for HTRF. The value of the DMSO blank (MIN inhibition=100% activity) was used as a negative control. The positive control was established by adding 5 μl of enzyme and DMSO mixture into 10 μl of detection mix followed by addition of 5 μl of TK Substrate-biotin and ATP mixture (MAX inhibition=0% activity). To calculate the percent activity, Equation 1 was used. Ratio 665/620 is the value at a given compound concentration: […]
`Cc1cc(-c2n[nH]c3ncc(-c4ccc5c(c4)CC[C@@H](N4CCCC4)CC5)cc23)cc(C)c1C(=O)N1CCNCC1` [Example 55, 1-(2,6-Dimethyl-4-{5-[(7S)-7-(pyrrolidin-1-yl)-6,7,8,9-tetrahydro-5H-benzo[7]annulen-2-yl]-1H-pyrazolo[3,4-b]pyridin-3-yl}benzoyl)piperazine] registered an IC50 of less than 100 nM.
The compound `Cc1cc(-c2n[nH]c3ncc(-c4ccc5c(c4)CC[C@@H](N4CCCC4)CC5)cc23)cc(Cl)c1C(=O)N1CCNCC1` [Example 56, 1-(2-Chloro-6-methyl-4-{5-[(7S)-7-(pyrrolidin-1-yl)-6,7,8,9-tetrahydro-5H-benzo[7]annulen-2-yl]-1H-pyrazolo[3,4-b]pyridin-3-yl}benzoyl)piperazine] displayed an IC50 of less than 100 nM.
The value for `C[C@@H]1CCCN1C1(C)CCc2ccc(-c3cnc4[nH]nc(-c5ccc(C(C)(C)O)c(Cl)c5)c4c3)cc2CC1` (stereo partly drawn) [Example 57, 2-[2-Chloro-4-(5-{7-methyl-7-[(2R)-2-methylpyrrolidin-1-yl]-6,7,8,9-tetrahydro-5H-benzo[7]annulen-2-yl}-1H-pyrazolo[3,4-b]pyridin-3-yl)phenyl]propan-2-ol] was 100 to 1000 nM; that for `C[C@H]1CCCN1C1(C)CCc2ccc(-c3cnc4[nH]nc(-c5ccc(C(C)(C)O)c(Cl)c5)c4c3)cc2CC1` (stereo partly drawn) [Example 58, 2-[2-Chloro-4-(5-{7-methyl-7-[(2S)-2-methylpyrrolidin-1-yl]-6,7,8,9-tetrahydro-5H-benzo[7]annulen-2-yl}-1H-pyrazolo[3,4-b]pyridin-3-yl)phenyl]propan-2-ol] was 100 to 1000 nM.
Take `CC(C)(O)c1ccc(-c2n[nH]c3ncc(-c4cc5c(cn4)CCC(N4CCCC4)CC5)cc23)cc1Cl` (stereo not shown) [Example 59, 2-(2-Chloro-4-{5-[7-(pyrrolidin-1-yl)-5H,6H,7H,8H,9H-cyclohepta[c]pyridin-3-yl]-1H-pyrazolo[3,4-b]pyridin-3-yl}phenyl)propan-2-ol]: the IC50 is less than 100 nM.
The value for `CC(C)(O)c1ccc(-c2n[nH]c3ncc(-c4ccc5c(n4)CCC(N4CCCC4)CC5)cc23)cc1Cl` (stereo not shown) [Example 60, 2-(2-Chloro-4-{5-[7-(pyrrolidin-1-yl)-5H,6H,7H,8H,9H-cyclohepta[b]pyridin-2-yl]-1H-pyrazolo[3,4-b]pyridin-3-yl}phenyl)propan-2-ol] was 100 to 1000 nM; that for `CC(C)(O)c1ccc(-c2n[nH]c3ncc(-c4ccc5c(c4)CC4CCC(C5)C4N4CCCC4)cc23)cc1Cl` (stereo not shown) [Example 61, 2-(2-Chloro-4-{5-[13-(pyrrolidin-1-yl)tricyclo[8.2.1.0^3,8]trideca-3,5,7-trien-5-yl]-1H-pyrazolo[3,4-b]pyridin-3-yl}phenyl)propan-2-ol] was more than 1000 nM; that for `C[C@@H]1CCCN1C1CCc2ccc(-c3cnc4[nH]nc(-c5ccc(C6(O)CCC6)c(Cl)c5)c4c3)cc2CC1` (stereo partly drawn) [Example 62, 1-[2-Chloro-4-(5-{7-[(2R)-2-methylpyrrolidin-1-yl]-6,7,8,9-tetrahydro-5H-benzo[7]annulen-2-yl}-1H-pyrazolo[3,4-b]pyridin-3-yl)phenyl]cyclobutan-1-ol] was 100 to 1000 nM.
The compound `C[C@@H]1CCCN1C1CCc2ccc(-c3cnc4[nH]nc(-c5ccc(S(N)(=O)=O)c(Cl)c5)c4c3)cc2CC1` (stereo partly drawn) [Example 94, 2-Chloro-4-(5-(7-((R)-2-methylpyrrolidin-1-yl)-6,7,8,9-tetrahydro-5H-benzo[7]annulen-2-yl)-1H-pyrazolo[3,4-b]pyridin-3-yl)benzenesulfonamide] had an IC50 of less than 100 nM.
Consider `C[C@@H]1CCCN1C1(C)CCc2ccc(-c3cnc4[nH]nc(-c5ccc(S(N)(=O)=O)cc5)c4c3)cc2CC1` (stereo partly drawn) [Example 95, 4-(5-(7-Methyl-7-((R)-2-methylpyrrolidin-1-yl)-6,7,8,9-tetrahydro-5H-benzo[7]annulen-2-yl)-1H-pyrazolo[3,4-b]pyridin-3-yl)benzenesulfonamide], for which the half-maximal inhibitory concentration (IC50) is less than 100 nM.
